ChEMBL document CHEMBL4052747 (Bioorg Med Chem Lett, 2017)
Counter-ions that a name gives are not always drawn. The source made the active and inactive calls.

Key:
[1] = molecular target: T1, Kappa-type opioid receptor (Homo sapiens, UniProt P41145); assay: Agonist activity at human kappa opioid receptor expressed in CHO-K1 cells assessed as inhibition of forskolin-induced cAMP accumulation by TR-FRET assay; format: functional, cell-based
Mu-type opioid receptor [2] = molecular target: T2, Mu-type opioid receptor (Homo sapiens, UniProt P35372); assay: Agonist activity at human mu opioid receptor expressed in CHO-dhfr(-) cells assessed as inhibition of forskolin-induced cAMP accumulation by TR-FRET assay; format: functional, cell-based
T2 sequence (P35372 whole entry): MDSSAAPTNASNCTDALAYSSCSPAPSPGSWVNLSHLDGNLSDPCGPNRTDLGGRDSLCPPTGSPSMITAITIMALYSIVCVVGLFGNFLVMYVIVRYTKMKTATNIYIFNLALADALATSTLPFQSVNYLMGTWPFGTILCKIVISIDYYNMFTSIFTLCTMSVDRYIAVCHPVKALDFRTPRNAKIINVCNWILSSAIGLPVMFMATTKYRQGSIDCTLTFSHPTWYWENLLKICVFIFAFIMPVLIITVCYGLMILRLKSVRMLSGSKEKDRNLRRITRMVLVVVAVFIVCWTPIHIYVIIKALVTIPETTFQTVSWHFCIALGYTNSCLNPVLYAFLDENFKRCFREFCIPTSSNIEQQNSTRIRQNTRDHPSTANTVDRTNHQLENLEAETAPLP

Homo sapiens = organism: Homo sapiens; assay: Selectivity for human kappa opioid receptor over human mu opioid receptor
Rattus norvegicus = assay: Anti-allodynic activity in rat model of partial sciatic nerve ligation-induced allodynia assessed as effect on withdrawal threshold at 3 and 5 mg/kg, iv dosed 7 days after ligation and measured 30 mins post dose by up-down method with von Frey filaments assay; format: functional, organism-based
[3] = molecular target: T1, Kappa-type opioid receptor; assay: Agonist activity at human kappa opioid receptor
Mus musculus = assay: Anti-pruritic activity in mouse assessed as reduction in substance P-induced scratching behavior at 3 mg/kg, ip dosed 15 mins before substance P injection and measured for 30 mins post substance P challenge by MicroAct based method; format: functional, organism-based
Mu-type opioid receptor [4] = molecular target: T2, Mu-type opioid receptor; assay: Agonist activity at mu opioid receptor (unknown origin)

T1 sequence (P41145 whole entry): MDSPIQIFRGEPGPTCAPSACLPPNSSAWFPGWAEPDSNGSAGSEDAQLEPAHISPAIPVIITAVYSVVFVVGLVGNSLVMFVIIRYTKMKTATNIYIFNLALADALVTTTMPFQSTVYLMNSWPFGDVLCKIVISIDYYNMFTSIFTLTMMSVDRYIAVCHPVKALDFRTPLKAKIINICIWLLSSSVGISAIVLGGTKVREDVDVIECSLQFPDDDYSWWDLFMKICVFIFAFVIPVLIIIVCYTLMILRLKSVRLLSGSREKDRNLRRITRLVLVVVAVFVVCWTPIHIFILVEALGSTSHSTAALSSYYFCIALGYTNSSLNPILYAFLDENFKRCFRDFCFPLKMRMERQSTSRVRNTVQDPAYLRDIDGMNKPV

Structure (SMILES) | EC50 [1] | Emax [1] | EC50 (Mu-type opioid receptor [2]) | Emax (Mu-type opioid receptor [2]) | Selectivity ratio (Homo sapiens) | Activity (Rattus norvegicus) | EC50 [3] | Activity (Mus musculus) | EC50 (Mu-type opioid receptor [4])
CN(C(=O)/C=C/c1ccccc1)[C@@H]1CC[C@@]2(O)[C@H]3[C@@H](O)c4ccc(O)c5c4[C@@]2(CCN3CC2CC2)[C@H]1O5 | 0.0222 nM | 101% | 209 nM | 107% | – | – | – | – | –
CN(C(=O)/C=C/c1ccc(Cl)cc1)[C@@H]1CC[C@@]2(O)[C@H]3[C@@H](O)c4ccc(O)c5c4[C@@]2(CCN3CC2CC2)[C@H]1O5 | 0.0288 nM | 99% | 48.8 nM | 92% | – | – | – | – | –
CN(C(=O)/C=C/c1cccs1)[C@@H]1CC[C@@]2(O)[C@H]3[C@@H](O)c4ccc(O)c5c4[C@@]2(CCN3CC2CC2)[C@H]1O5 | 0.00466 nM | 101% | 4870 nM | 58% | – | – | – | – | –
CN(C(=O)/C=C/c1ccncc1)[C@@H]1CC[C@@]2(O)[C@H]3[C@@H](O)c4ccc(O)c5c4[C@@]2(CCN3CC2CC2)[C@H]1O5 | 0.0257 nM | 99% | 12100 nM | 62% | – | – | – | – | –
CN(C(=O)/C=C/c1ccoc1)[C@@H]1CC[C@@]2(O)[C@H]3[C@@H](O)c4ccc(O)c5c4[C@@]2(CCN3CC2CC2)[C@H]1O5 | 0.025 nM | 99% | 1100 nM | 88% | 44000 | Active | 0.025 nM | Active | –
CN(C(=O)CCc1ccccc1)[C@@H]1CC[C@@]2(O)[C@H]3[C@@H](O)c4ccc(O)c5c4[C@@]2(CCN3CC2CC2)[C@H]1O5 | 1.04 nM | 100% | 18300 nM | 57% | – | – | – | – | –
CN(C(=O)/C=C/c1ccc(O)cc1)[C@@H]1CC[C@@]2(O)[C@H]3[C@@H](O)c4ccc(O)c5c4[C@@]2(CCN3CC2CC2)[C@H]1O5 | 0.0953 nM | 98% | > 30000 nM | 49% | – | – | – | – | –
CN(C(=O)c1ccccc1)[C@@H]1CC[C@@]2(O)[C@H]3[C@@H](O)c4ccc(O)c5c4[C@@]2(CCN3CC2CC2)[C@H]1O5 | > 100 nM | 23% | > 30000 nM | 44% | – | – | – | – | –
CN(C(=O)COc1ccccc1)[C@@H]1CC[C@@]2(O)[C@H]3[C@@H](O)c4ccc(O)c5c4[C@@]2(CCN3CC2CC2)[C@H]1O5 | 5.04 nM | 97% | > 30000 nM | 17% | – | – | – | – | –
CN(C(=O)CCCc1ccccc1)[C@@H]1CC[C@@]2(O)[C@H]3[C@@H](O)c4ccc(O)c5c4[C@@]2(CCN3CC2CC2)[C@H]1O5 | 7.51 nM | 96% | 12900 nM | 99% | – | – | – | – | –
CN(C(=O)C#Cc1ccccc1)[C@@H]1CC[C@@]2(O)[C@H]3[C@@H](O)c4ccc(O)c5c4[C@@]2(CCN3CC2CC2)[C@H]1O5 | 0.0799 nM | 102% | 904 nM | 95% | – | – | – | – | –
CN(C(=O)/C=C/c1ccoc1)[C@@H]1CC[C@@]2(O)[C@H]3Cc4ccc(O)c5c4[C@@]2(CCN3CC2CC2)[C@H]1O5 [NALFURAFINE HYDROCHLORIDE] | – | – | – | – | – | – | – | – | 1.7 nM
CN(C(=O)/C=C/c1ccsc1)[C@@H]1CC[C@@]2(O)[C@H]3[C@@H](O)c4ccc(O)c5c4[C@@]2(CCN3CC2CC2)[C@H]1O5 | 0.028 nM | 101% | 110 nM | 96% | – | – | – | – | –
CN(C(=O)/C=C/c1cccnc1)[C@@H]1CC[C@@]2(O)[C@H]3[C@@H](O)c4ccc(O)c5c4[C@@]2(CCN3CC2CC2)[C@H]1O5 | 0.291 nM | 101% | 3760 nM | 86% | – | – | – | – | –
Cc1ccc(/C=C/C(=O)N(C)[C@@H]2CC[C@@]3(O)[C@H]4[C@@H](O)c5ccc(O)c6c5[C@@]3(CCN4CC3CC3)[C@H]2O6)cc1 | 0.0494 nM | 101% | 308 nM | 72% | – | – | – | – | –
CN(C(=O)/C=C/c1ccccn1)[C@@H]1CC[C@@]2(O)[C@H]3[C@@H](O)c4ccc(O)c5c4[C@@]2(CCN3CC2CC2)[C@H]1O5 | 0.0283 nM | 99% | 2880 nM | 89% | – | – | – | – | –
CN(C(=O)Cc1ccccc1)[C@@H]1CC[C@@]2(O)[C@H]3[C@@H](O)c4ccc(O)c5c4[C@@]2(CCN3CC2CC2)[C@H]1O5 | > 100 nM | 18% | > 30000 nM | 43% | – | – | – | – | –
CN(C(=O)/C=C/c1ccco1)[C@@H]1CC[C@@]2(O)[C@H]3[C@@H](O)c4ccc(O)c5c4[C@@]2(CCN3CC2CC2)[C@H]1O5 | 0.122 nM | 102% | 14200 nM | 55% | – | – | – | – | –
